Source: US8372889B2, “Methods for modulating metabolism” (Omega Biopharma (I.P.3) Limited, priority 2004, dated 2013)
Counter-ions that a name gives are not always drawn.

How the values were obtained:
[1] = system: diabetic patients; test: Open-label, randomized trial in diabetes type II patients (Example 4); conditions: for 24 h Microalbuminuria, Pre-treatment / FBS (fasting blood sugar), Pre-treatment / FCP (C peptide), Pre-treatment / FINS (fasting insulin), Pre-treatment / HOMA (Homeostasis Model Assessment), Pre-treatment / IGF, Pre-treatment / UA (blood uric acid), Pre-treatment: baseline before the trial treatment
Procedure: A small open-label, randomized trial was carried out at the national reference center for diabetes in China. Sixty patients of both sexes (ages ranged from 30 to 75 years old) diagnosed with diabetes type II were recruited. All subjects were informed and gave their consent to participate. Diabetes was diagnosed based on the WHO criteria set in 1999. […] Patients with the following conditions were excluded from the study: (1) dysfunction of heart, liver and/or kidney; (2) with acute diabetic complications and/or any acute cardiovascular complications or other chronic diseases in the past three months; and (3) pregnancy or nursing.
Patients were divided randomly into four groups of 15 patients each. A control group of subjects was not administered anti-diabetic drugs. The cysteamine alone (DC) group was treated with 540 mg/day of cysteamine hydrochloride. In the Metformin alone (Met) group, the dose of Metformin remained unchanged during the two months period. For the DC+Met group, patients remained on the same dose of Metformin they were originally administered, including an additional 100 mg/day of cysteamine hydrochloride. All patients were subjected to treatments for two months and samples were collected and measured at the beginning of, one month after, and two month after the trial for analysis. The results described herein are derived from the samples collected and measured at the beginning of the first month after the trial.

[2] = system: Goto-Kakizaki Wistar rats (GK rats); test: Oral glucose tolerance test and starving plasma glucose in GK rats (Example 1); conditions: oral Metformin alone
Procedure: Nineteen male Goto-Kakizaki Wistar rats (GK rats) with weights of 300±20 g were kept in steel cages, 3-4 rats per cage. The cages were changed every two days. Indoor temperature and relative humidity was kept at 23±3° . and 65±1% respectively. Feed and drinking water was provided. GK rats were permitted a one-month period for adaptation.
One day prior to experimentation, at 17:00, all of the feed was removed from all groups, but not the drinking water. On the second day, at 09:30, starving plasma glucose was measured for all GK rats. At 10:00, glucose tolerance test (2 g/kg BW) was performed and the plasma glucose level was measured as well for all GK rats. […] On the ninth day, starving plasma glucose was measured and oral glucose tolerance test was performed again for all GK rats in all groups. […]
Six days following the change in regimen, starving plasma glucose was measured and glucose tolerance tests were performed, and blood and tissue samples were collected (liver, duodenum, pancreas gland, fat, and muscle) for all GK rats in all groups. […]
The glucose tolerance tests that were performed included the steps of starving the GK rats overnight. Next day at 09:30, starving plasma glucose was measured. […]

[3] = system: glut 4; test: glut 4 expression in different tissues of GK diabetic rats (Example 3); format: in vivo, rat; conditions: liver, muscles, adipocytes
Procedure: Thirty-six Goto-Kakizaki Wistar (GK) rats (purchased from Shanghai Slaccas Laboratory Animal Center) aged about 13 weeks and weighting 321-323 g were acclimated to the animal facility for two weeks in individual cages. Food and water were provided ad libitum. The 36 GK rats were divided into 4 groups based on body weight (BW) and plasma glucose level. […] Group 2 (DC, n=6) was treated with cysteamine hydrochloride by gavage (22.5 mg/kg BW in 2 ml tap water); […] All animals were treated at 10:00 for 20 days.

[4] = system: GK diabetic rats; test: Plasma insulin and adiponectin in GK diabetic rats (Example 3); format: in vivo, rat
Procedure: (§1) Thirty-six Goto-Kakizaki Wistar (GK) rats (purchased from Shanghai Slaccas Laboratory Animal Center) aged about 13 weeks and weighting 321-323 g were acclimated to the animal facility for two weeks in individual cages. Food and water were provided ad libitum.
(§2) The 36 GK rats were divided into 4 groups based on body weight (BW) and plasma glucose level. Group 1 (control, n=10) was treated with saline by gavage (2 ml/rat); Group 2 (DC, n=6) was treated with cysteamine hydrochloride by gavage (22.5 mg/kg BW in 2 ml tap water); Group 3 (Metformin, Met, n=10) was treated with Metformin by gavage (34 mg/kg BW in 2 ml tap water); Group 4 (Met+DC, n=10) was treated with Metformin 34 mg/kg BW/day in 2 ml tap water for the first 10 days and then was treated with both cysteamine hydrochloride 22.5 mg/kg BW plus Metformin 34 mg/kg BW in 2 ml tap water for the second 10 days. All animals were treated at 10:00 for 20 days.
The four groups of animals were kept in the same room (temp 23±3° ., relative humidity 65±1%) in different cages with wire mesh bottoms to reduce coprophagia throughout the experiment. The rats were subjected to fasting overnight from 22:00 to 9:30 of the following day before being subjected to a glucose tolerance test. The rats were treated with glucose 2 g/kg BW in 2 ml tap water at 9:30 for the glucose tolerance test and the blood was collected from the tail vein at 0.5 hr, 1 hr, 2 hr, and 3 hr after glucose injection. Plasma glucose concentrations were determined by Glucotrendr2 equipment (Roche Diagnostics, Basel, Switzerland). Plasma insulin concentrations were determined by radioimmunoassay (Insulin RIA Kit, NO:0410, purchased from Shanghai Radioimmunoassay Research Institution).

[5] = system: normal Wistar rats; test: Fasting plasma glucose and insulin in normal Wistar rats (Example 2); format: in vivo, rat; conditions: for Fasting glucose / Fasting insulin: normal Wistar rats, Mean ± STD
Procedure: Thirty-two male Wistar rats (purchased from Shanghai Slaccas Laboratory Animal Center) aged about 13 weeks and weighting around 300 g were acclimated to the animal facility for two weeks in individual cages. Food and water were provided ad libitum. The Wistar rats were divided randomly into 4 groups and each group contained 8 rats. […] All animals were treated at 10:00 for 27 days. The four groups of animals were kept in the same room in different cages with wire mesh bottoms to reduce coprophagia throughout the experiment. […] Plasma glucose concentrations were determined by Glucotrendr2 equipment (Roche Diagnostics, Basel, Switzerland). Plasma insulin concentrations were determined by radioimmunoassay (Insulin RIA Kit, NO:0410, purchased from Shanghai Radioimmunoassay Research Institution). The abbreviation STD denotes the variability of the data about the mean or “standard deviation.” The abbreviation p denotes the level of significance of the results.

[6] = system: GK diabetic rats; test: Glucose tolerance test in GK diabetic rats (Example 3); format: in vivo, rat
Procedure: as §1, §2
The four groups of animals were kept in the same room (temp 23±3° ., relative humidity 65±1%) in different cages with wire mesh bottoms to reduce coprophagia throughout the experiment. […] Plasma glucose concentrations were determined by Glucotrendr2 equipment (Roche Diagnostics, Basel, Switzerland). Plasma insulin concentrations were determined by radioimmunoassay (Insulin RIA Kit, NO:0410, purchased from Shanghai Radioimmunoassay Research Institution).

[7] = system: fat-feed rats; test: Lipids, free fatty acid and uric acid in fat-feed rats (Example 5); format: in vivo, rat; conditions: for CH / FFA / HDL / LDL / TG / UA: Mean + STD
[8] = DC15: 15 mg/kg BW by gavage for 27 days
[9] = DC22.5: 22.5 mg/kg BW by gavage for 27 days
[10] = DC30: 30 mg/kg BW by gavage for 27 days
[11] = normal, fasting Wistar rats, 15-30 mg/kg BW
[12] = doses of 11.25 mg/kg and 22.5 mg/kg

For CN(C)C(=N)N=C(N)N [Metformin, reference compound], the “insulin-like growth factor 1 (IGF1) (in words)” value [1] was “only a decrease”, the “24 h Microalbuminuria, Pre-treatment” value [1] was 27.5 ± 23.69 and the “FBS (fasting blood sugar), Pre-treatment” value [1] was 8.92 ± 2.7. The “FCP (C peptide), Pre-treatment” value [1] was 579 ± 212, the “FINS (fasting insulin), Pre-treatment” value [1] was 19.35 ± 10.2 and the “HOMA (Homeostasis Model Assessment), Pre-treatment” value [1] was 7.33 ± 3.3. The “IGF, Pre-treatment” value [1] was 52.81 ± 10.04, the “UA (blood uric acid), Pre-treatment” value [1] was 320 ± 67 and the “duodenal plasma glucose levels and insulin resistance (in words)” value [2] was “to some extent, lowers”. The “expression of total glut4 (in words)” value [3] was “increased, but not significantly” and the “insulin levels (in words)” value [4] was “decreased, but not statistically significant”.

NCCS [cysteamine hydrochloride] showed a Fasting glucose [5, 8] of 4.05 ± 0.23, a Fasting insulin [5, 8] of 48.82 ± 3.27 and a Fasting glucose [5, 9] of 3.94 ± 0.27. The Fasting insulin [5, 9] was 48.39 ± 2.38, the Fasting glucose [5, 10] was 3.95 ± 0.17 and the Fasting insulin [5, 10] was 51.32 ± 2.94. The “blood glucose levels (in words)” value [5, 11] was “dose-dependent effect on lowering”, the “blood insulin levels (in words)” value [5, 11] was “does not affect” and the “Glucose tolerance test, plasma glucose, 2 hr” value ([6]; gavage DC 22.5 mg/kg BW, Metformin 34 mg/kg BW, 20 days, Met+DC: DC added for second 10 days, after glucose 2 g/kg BW, Mean ± STD) was 11.00 ± 0.8 mmol/L. For the same compound, the “glucose levels (in words)” value ([6]; glucose tolerance test, combination compared with Metformin alone, all time points except Fasting) was “did not affect”, the “C peptide (CP) (in words)” value [1] was “decreases significantly” and the “HOMA (Homeostasis Model Assessment) (in words)” value [1] was “decreases significantly”. For the same compound, the “blood uric acid (UA) levels (in words)” value [1] was “decreases significantly”, the “fasting insulin (FINS) (in words)” value [1] was “decreases significantly” and the “insulin-like growth factor 1 (IGF1) (in words)” value [1] was “decreases significantly”. The “microalbuminuria (in words)” value [1] was “obvious but not statistically significantly”, the “24 h Microalbuminuria, Pre-treatment” value [1] was 42.73 ± 31.33 and the “FBS (fasting blood sugar), Pre-treatment” value [1] was 7.52 ± 1.57. For the same compound, the “FCP (C peptide), Pre-treatment” value [1] was 739 ± 183, the “FINS (fasting insulin), Pre-treatment” value [1] was 35.39 ± 14.43 and the “HOMA (Homeostasis Model Assessment), Pre-treatment” value [1] was 11.94 ± 4.62. For the same compound, the “IGF, Pre-treatment” value [1] was 49.36 ± 5.75, the “UA (blood uric acid), Pre-treatment” value [1] was 389 ± 50.98 and the “LDL (in words)” value [7] was “decrease LDL but not significantly”. It also gave a CH ([7]; DC11.25: 11.25 mg/kg) of 1.6 ± 0.31 mmol/L, an FFA ([7]; DC11.25: 11.25 mg/kg) of 842 ± 256 µmol/L and an HDL ([7]; DC11.25: 11.25 mg/kg) of 1.11 ± 0.16 mmol/L. For the same compound, the LDL ([7]; DC11.25: 11.25 mg/kg) was 0.61 ± 0.18 mmol/L, the TG ([7]; DC11.25: 11.25 mg/kg) was 1.15 ± 0.12 mmol/L and the UA ([7]; DC11.25: 11.25 mg/kg) was 17.41 ± 1.99 mg/L. The CH ([7]; DC22.5: 22.5 mg/kg) was 1.55 ± 0.27 mmol/L, the FFA ([7]; DC22.5: 22.5 mg/kg) was 1087 ± 181 µmol/L and the HDL ([7]; DC22.5: 22.5 mg/kg) was 1.04 ± 0.09 mmol/L. It also gave an LDL ([7]; DC22.5: 22.5 mg/kg) of 0.63 ± 0.18 mmol/L, a TG ([7]; DC22.5: 22.5 mg/kg) of 1.1 ± 0.08 mmol/L and a UA ([7]; DC22.5: 22.5 mg/kg) of 16.12 ± 1.04 mg/L. The “free fatty acid (in words)” value ([7]; at doses indicated) was “significantly decrease”, the “uric acid (in words)” value ([7]; at doses indicated) was “significantly decrease” and the “cholesterol levels (in words)” value [7, 12] was “can decrease”. For the same compound, the “triglyceride levels (in words)” value [7, 12] was “can decrease”, the “HDL (in words)” value ([7]; not significantly) was “trend that cysteamine can increase HDL” and the “expression of total glut4 (in words)” value [3] was “significantly increase”. For the same compound, the “adiponectin (in words)” value [4] was “significantly increased” and the “insulin levels (in words)” value [4] was “did not affect”.
